Measurements from patent US20260240832A1, “USE OF NITROXOLINE COMPOUND IN ENHANCING EFFECT OF ANTIBACTERIAL AGENT” (Jiangsu Yahong Meditech Co., Ltd., priority 2022, published 2026).

Experiments:
[1] = tested on: carbapenem-resistant Acinetobacter baumannii; assay: Chessboard microbroth dilution MIC/FIC, compound A in combination with meropenem; assay type: cell-based; settings: for MIC: Acinetobacter baumannii, read-out: Meropenem MIC alone; for Meropenem MIC in combination: with compound A
Excerpt: This experiment is designed to determine the minimum inhibitory concentration (MIC) of compound A in combination with meropenem against carbapenem-resistant Acinetobacter baumannii and to calculate the fractional inhibitory concentration (FIC) index.
Test bacteria: 10 strains of carbapenem-resistant Acinetobacter baumannii are clinically isolated strains, and are provided by Shanghai Junji Medical Laboratory Co., Ltd.
(§1) According to the recommendation of the Clinical and Laboratory Standards Institute (CLSI), the microbroth dilution method designed by the chessboard method was used to determine the minimum inhibitory concentration (MIC) of compound A in combination with meropenem against the above strains, and the fractional inhibitory concentration (FIC) index was calculated.
Compound A was dissolved in dimethyl sulfoxide to obtain a stock solution I with a concentration of 51200 mg/L. The stock solution I was subjected to 1:1 gradient dilution with dimethyl sulfoxide to obtain a dilution solution with a concentration range of 51200 to 25 mg/L. The corresponding concentrations were added to sterile water for 100-fold dilution to obtain working solution I with a concentration range of 512 to 0.25 mg/L.
Meropenem was dissolved in sterile water to obtain a stock solution with a concentration of 5120 mg/L. The […] stock solution was subjected to 1:1 gradient dilution with sterile water to obtain a working solution II with a concentration range of 512 to 0.25 mg/L.
According to the method in Example 1, a drug sensitive plate was prepared with working solution I and working solution II, and the specific process will not be repeated here.
(§2) (2) The culture medium of the bacterial solution: Cation-Adjusted Mueller-Hinton Broth (CAMHB), a product of BBL, USA, batch number 9015952.
(§3) (3) Formulation method of bacterial solution: According to the direct colony suspension method, the test bacteria cultured overnight were prepared into a 0.5 McFarland turbidity tube using physiological saline. Then, the resulting solution was dilute 100 times with the above culture medium. 100 μL of the resulting bacterial solution was mixed well with the solution (100 μL) in each well of the drug sensitivity plate, and the final inoculation amount was 10^5 CFU/mL.
(§4) (4) Culture conditions: Culturing at 35±2° C. for 20 hours in air.
(1) The experimental results were determined according to the standard of CLSI 2020 M100 30th edition.
wherein: FIC≤0.5 indicates synergistic effect; 0.5<FIC≤1.0 indicates additive effect; 1<FIC≤2.0 indicates irrelevant effect; and FIC>2 indicates antagonistic effect.

[2] = tested on: carbapenem-resistant Acinetobacter baumannii; assay: Chessboard microbroth dilution MIC/FIC, compound 1 in combination with meropenem; assay type: cell-based; settings: for MIC: Acinetobacter baumannii; for Meropenem MIC in combination: with compound 1; for Compound 1 MIC in combination: with meropenem
Excerpt: This experiment is designed to determine the minimum inhibitory concentration (MIC) of compound 1 in combination with meropenem against Acinetobacter baumannii (a strain resistant to carbapenem antibiotics) and to calculate the fractional inhibitory concentration (FIC) index.
Test bacteria: A total of 9 strains of Acinetobacter baumannii, all of which are resistant to carbapenem antibiotics (e.g., meropenem), are clinically isolated strains, and are provided by Shanghai Junji Medical Laboratory Co., Ltd.
as §1, with “compound 1” for “compound A”
Compound 1 was dissolved in dimethyl sulfoxide to obtain a stock solution I with a concentration of 1280 mg/L. The stock solution I was diluted to 512 mg/L with sterile water to obtain a gradient dilution first tube solution I. The gradient dilution first tube solution I was subjected to 1:1 gradient dilution with sterile water to obtain a working solution I with a gradient range of 512 to 0.25 mg/L.
Meropenem was dissolved in sterile water to obtain a stock solution II with a concentration of 5120 mg/L. The stock solution II was diluted to 1024 mg/L with sterile water to obtain a gradient dilution first tube solution II. The gradient dilution first tube solution II was subjected to 1:1 gradient dilution with sterile water to obtain a working solution II with a gradient range of 1024 to 0.5 mg/L.
50 μL of solution was taken from each tube of working solution I, and added to the drug sensitivity plate row by row starting from the second well of each row (in each row, the concentration of compound 1 increased from the second well to the last well). 50 μL of solution was taken from each tube of working solution II, and added to the drug sensitivity plate column by column starting from the second well of each column (in each column, the concentration of meropenem increased from the second well to the last well). As a result, a chessboard cross with different concentrations of the two drugs was formed (wherein, there was neither compound 1 nor meropenem in the intersection well of the first row and the first column; the wells of the first row except the intersection well only contained compound 1, and the wells of the first column except the intersection well only contained meropenem; except for the above wells, the remaining wells contained […] and meropenem).
According to the above process, the volume of the drug solution in each well containing only one drug of the drug sensitivity plate was 50 μL, thus 50 μL of sterile water was added to each well. 100 μL of sterile water was added to the intersection well of the first row and the first column. After that, 100 μL of bacterial solution (formulated according to step (3)) was added to all the wells of the drug sensitivity plate and mixed.
as §2, §3, §4
(1) The experimental results were determined according to the standard of CLSI 2019 M100 29th edition. […]

[3] = strain 18-J11-001, compound 1 + meropenem
[4] = strain 18-J11-002, compound 1 + meropenem
[5] = strain 18-J11-034, compound 1 + meropenem
[6] = strain 18-J11-097, compound 1 + meropenem
[7] = strain 18-J15-030, compound 1 + meropenem
[8] = strain 18-J21-095, compound 1 + meropenem
[9] = strain 18-J24-015, compound 1 + meropenem
[10] = strain 18-J40-021, compound 1 + meropenem
[11] = strain 18-J51-052, compound 1 + meropenem

Q: Which results are given for C[C@@H](O)[C@H]1C(=O)N2C(C(=O)O)=C(S[C@@H]3CN[C@H](C(=O)N(C)C)C3)[C@H](C)[C@H]12 [Meropenem, reference compound]?
A: MIC ([1]; strain No. 1): 128 µg/mL; MIC ([1]; strain No. 2): 128 µg/mL; MIC ([1]; strain No. 3): 128 µg/mL; MIC ([1]; strain No. 4): 128 µg/mL; MIC ([1]; strain No. 5): 128 µg/mL; MIC ([1]; strain No. 6): 128 µg/mL; MIC ([1]; strain No. 7): 64 µg/mL; MIC ([1]; strain No. 8): 64 µg/mL; MIC ([1]; strain No. 9): 64 µg/mL; MIC ([1]; strain No. 10): 128 µg/mL; Meropenem MIC in combination ([1]; strain No. 1): 16 µg/mL; Meropenem MIC in combination ([1]; strain No. 2): 16 µg/mL; Meropenem MIC in combination ([1]; strain No. 3): 16 µg/mL; Meropenem MIC in combination ([1]; strain No. 4): 16 µg/mL; Meropenem MIC in combination ([1]; strain No. 5): 16 µg/mL; Meropenem MIC in combination ([1]; strain No. 6): 16 µg/mL; Meropenem MIC in combination ([1]; strain No. 7): 16 µg/mL; Meropenem MIC in combination ([1]; strain No. 8): 8 µg/mL; Meropenem MIC in combination ([1]; strain No. 9): 8 µg/mL; Meropenem MIC in combination ([1]; strain No. 10): 16 µg/mL; MIC ([2]; strain 18-J11-001, read-out: Meropenem MIC alone): 32 µg/mL; MIC ([2]; strain 18-J11-002, read-out: Meropenem MIC alone): 64 µg/mL; MIC ([2]; strain 18-J11-034, read-out: Meropenem MIC alone): 64 µg/mL; MIC ([2]; strain 18-J11-097, read-out: Meropenem MIC alone): 64 µg/mL; MIC ([2]; strain 18-J15-030, read-out: Meropenem MIC alone): 64 µg/mL; MIC ([2]; strain 18-J21-095, read-out: Meropenem MIC alone): 64 µg/mL; MIC ([2]; strain 18-J24-015, read-out: Meropenem MIC alone): 64 µg/mL; MIC ([2]; strain 18-J40-021, read-out: Meropenem MIC alone): 64 µg/mL; MIC ([2]; strain 18-J51-052, read-out: Meropenem MIC alone): 32 µg/mL; Meropenem MIC in combination ([2]; strain 18-J11-001): 8 µg/mL; Meropenem MIC in combination ([2]; strain 18-J11-002): 16 µg/mL; Meropenem MIC in combination ([2]; strain 18-J11-034): 16 µg/mL; Meropenem MIC in combination ([2]; strain 18-J11-097): 16 µg/mL; Meropenem MIC in combination ([2]; strain 18-J15-030): 8 µg/mL; Meropenem MIC in combination ([2]; strain 18-J21-095): 16 µg/mL; Meropenem MIC in combination ([2]; strain 18-J24-015): 32 µg/mL; Meropenem MIC in combination ([2]; strain 18-J40-021): 16 µg/mL; Meropenem MIC in combination ([2]; strain 18-J51-052): 4 µg/mL

Q: How did the MIC ([2]; strain 18-J11-001, read-out: Compound 1 MIC alone) turn out when O=[N+]([O-])c1c(Br)c(Cl)c2cccnc2c1O [Compound 1, 6-bromo-5-chloro-7-nitroquinolin-8-ol] was run?
A: The MIC was 8 µg/mL.

Q: What about the MIC ([2]; strain 18-J11-002, read-out: Compound 1 MIC alone) of the same compound?
A: The MIC was 4 µg/mL.

Q: What about the MIC ([2]; strain 18-J11-034, read-out: Compound 1 MIC alone) of the same compound?
A: The MIC was 4 µg/mL.

Q: What about the MIC ([2]; strain 18-J11-097, read-out: Compound 1 MIC alone) of the same compound?
A: The MIC was 8 µg/mL.

Q: And the MIC ([2]; strain 18-J15-030, read-out: Compound 1 MIC alone)?
A: Its MIC is 16 µg/mL.

Q: And the MIC ([2]; strain 18-J21-095, read-out: Compound 1 MIC alone)?
A: The MIC was 8 µg/mL.

Q: What about the MIC ([2]; strain 18-J24-015, read-out: Compound 1 MIC alone) of the same compound?
A: The MIC was 8 µg/mL.

Q: What about the MIC ([2]; strain 18-J40-021, read-out: Compound 1 MIC alone) of the same compound?
A: The MIC was 8 µg/mL.

Q: What about the MIC ([2]; strain 18-J51-052, read-out: Compound 1 MIC alone) of the same compound?
A: Its MIC is 4 µg/mL.

Q: And the “change of the MIC of meropenem by the combination” value ([2]; compound 1 + meropenem)?
A: Its value is “significantly reduce”.

Q: And the “effect of the combination (summary of Table 1)” value ([2]; compound 1 + meropenem, strains resistant to carbapenem antibiotics)?
A: Its value is “additive effect (0.5<FIC≤1.0 indicates additive effect)”.

Q: What about the FIC index [2, 3] of the same compound?
A: The FIC index was 0.750.

Q: What about the Results [2, 3] of the same compound?
A: Its Results is “Additive”.

Q: What about the “Compound 1 MIC in combination” value ([2]; strain 18-J11-001) of the same compound?
A: Its value is 4 µg/mL.

Q: What about the FIC index [2, 4] of the same compound?
A: Its FIC index is 0.750.

Q: And the Results [2, 4]?
A: The Results was “Additive”.

Q: What about the “Compound 1 MIC in combination” value ([2]; strain 18-J11-002) of the same compound?
A: The value was 2 µg/mL.

Q: What about the FIC index [2, 5] of the same compound?
A: The FIC index was 0.750.

Q: What about the Results [2, 5] of the same compound?
A: Its Results is “Additive”.

Q: And the “Compound 1 MIC in combination” value ([2]; strain 18-J11-034)?
A: The value was 2 µg/mL.

Q: And the FIC index [2, 6]?
A: Its FIC index is 0.750.

Q: And the Results [2, 6]?
A: Its Results is “Additive”.

Q: And the “Compound 1 MIC in combination” value ([2]; strain 18-J11-097)?
A: Its value is 4 µg/mL.

Q: What about the FIC index [2, 7] of the same compound?
A: Its FIC index is 0.625.

Q: What about the Results [2, 7] of the same compound?
A: Its Results is “Additive”.

Q: And the “Compound 1 MIC in combination” value ([2]; strain 18-J15-030)?
A: The value was 8 µg/mL.

Q: And the FIC index [2, 8]?
A: The FIC index was 0.750.

Q: And the Results [2, 8]?
A: The Results was “Additive”.

Q: What about the “Compound 1 MIC in combination” value ([2]; strain 18-J21-095) of the same compound?
A: The value was 4 µg/mL.

Q: And the FIC index [2, 9]?
A: Its FIC index is 0.750.

Q: What about the Results [2, 9] of the same compound?
A: The Results was “Additive”.

Q: What about the “Compound 1 MIC in combination” value ([2]; strain 18-J24-015) of the same compound?
A: The value was 2 µg/mL.

Q: What about the FIC index [2, 10] of the same compound?
A: The FIC index was 0.750.

Q: What about the Results [2, 10] of the same compound?
A: The Results was “Additive”.

Q: What about the “Compound 1 MIC in combination” value ([2]; strain 18-J40-021) of the same compound?
A: The value was 4 µg/mL.

Q: What about the FIC index [2, 11] of the same compound?
A: The FIC index was 0.625.

Q: What about the Results [2, 11] of the same compound?
A: The Results was “Additive”.

Q: What about the “Compound 1 MIC in combination” value ([2]; strain 18-J51-052) of the same compound?
A: The value was 2 µg/mL.
